Some test systems named below: UACC-257 melanoma; NCI-H522 lung; RPMI-8226 leukemia; IGROV1 ovarian; NCI-H460 lung; U251 CNS; HT29 colon; HCT-15 colon; MOLT-4 leukemia; NCI/ADR-RES ovarian.
Holding throughout (assay): NCI anticancer screen, dose series, 48 h

Here are results for eight compounds from PubChem BioAssay (NCI).

Each structure is given as a SMILES string. Several values for one entry are separate records, joined by “and”; a condition that tells them apart may be missing. Identical values can stand only once.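 In this assay, cells in 96-well plates receive the compound at five concentrations for 48 hours. Endpoints are linearly interpolated between the surrounding concentrations. GI50: concentration for 50% inhibition of growth. TGI is the concentration that stops growth completely.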

Turning to `COC(=O)[C@]12CC[C@@H](C)[C@H](C)[C@@H]1C1=CC[C@@H]3[C@@]4(C)C(C=O)=C[C@@](C)(COS(C)(=O)=O)C4[C@H](O)C[C@@]3(C)[C@]1(C)CC2` (stereo not given in full), the GI50 in the assay on UACC-257 melanoma was 1850 nM; in the assay on NCI-H522 lung it was 1210 nM; with RPMI-8226 leukemia, 0.342 µM; with IGROV1 ovarian it was 2580 nM; in the assay on NCI-H460 lung, 2.15 µM; in the assay with U251 CNS, 1.65 µM. Also, the GI50 in the assay on HT29 colon is 1640 nM; in the assay on HCT-15 colon, 1.34 µM; with MOLT-4 leukemia it was 0.313 µM; with NCI/ADR-RES ovarian, 2.03 µM. Further, the TGI came out at 3.65 µM with UACC-257 melanoma; 2.91 µM in the assay on NCI-H522 lung; 1.99 µM in the assay on RPMI-8226 leukemia; 7.36 µM with IGROV1 ovarian; 4.93 µM in the assay on NCI-H460 lung; 3.17 µM with U251 CNS. Moreover, the TGI in the assay with HT29 colon was determined as 3.5 µM; with HCT-15 colon, 2.87 µM; in the assay with MOLT-4 leukemia, 1.05 µM; with NCI/ADR-RES ovarian, 5.3 µM.

Consider `Cn1cnc2c(F)c(Nc3ccc(Br)cc3F)c(C(=O)NOCCO)cc21`, for which the GI50 is 22.4 nM and 24 nM with UACC-257 melanoma; more than 63200 nM with NCI-H522 lung; more than 56.4 µM in the assay with RPMI-8226 leukemia; more than 100 µM in the assay with NCI-H460 lung; 7.78 µM in the assay on U251 CNS; 26.3 nM and 31.6 nM in the assay with HT29 colon. The GI50 in the assay with HCT-15 colon was 57.5 µM; in the assay with MOLT-4 leukemia it was more than 100 µM; in the assay on NCI/ADR-RES ovarian, more than 100 µM. Besides, the TGI is 0.253 µM and 0.148 µM in the assay on UACC-257 melanoma; more than 100 µM in the assay on NCI-H522 lung; more than 100 µM in the assay with RPMI-8226 leukemia; more than 100 µM in the assay with IGROV1 ovarian; more than 100 µM with NCI-H460 lung; more than 100 µM in the assay on U251 CNS. Moreover, the TGI with HT29 colon, in the assay with HCT-15 colon, with MOLT-4 leukemia and in the assay on NCI/ADR-RES ovarian was more than 100 µM throughout.

For the compound `COc1ccc(Cn2cc3c(c2-c2cc(OC)c(OC)c(OC)c2)CCc2cnoc2-3)cc1N`, the GI50 with UACC-257 melanoma is more than 23100 nM; in the assay with NCI-H522 lung it was 18 nM; in the assay with RPMI-8226 leukemia, 0.0489 µM; with IGROV1 ovarian, 81.8 nM; with NCI-H460 lung, 0.0377 µM; in the assay on U251 CNS, 0.0523 µM. Besides, the GI50 with HT29 colon was 307 nM; in the assay on HCT-15 colon, 0.0454 µM; with MOLT-4 leukemia, 0.0648 µM; in the assay on NCI/ADR-RES ovarian it was 0.0357 µM. Moreover, the TGI is more than 100 µM with UACC-257 melanoma; 0.058 µM with NCI-H522 lung; more than 72.6 µM with IGROV1 ovarian; 5.22 µM in the assay on NCI-H460 lung; more than 100 µM in the assay on U251 CNS; 1.71 µM with HT29 colon. Moreover, the TGI with HCT-15 colon is more than 100 µM; in the assay with MOLT-4 leukemia, more than 45.9 µM; in the assay on NCI/ADR-RES ovarian, more than 100 µM.

As to `COc1c(Cl)ccc2c(-c3nc4cc(Cl)c(F)cc4s3)cc(=O)oc12`, the GI50 in the assay with UACC-257 melanoma is 26500 nM; in the assay on NCI-H522 lung it was 1600 nM; with RPMI-8226 leukemia, 3.58 µM; in the assay with IGROV1 ovarian it was 1680 nM; in the assay on NCI-H460 lung it was 33.2 µM; in the assay with U251 CNS, 7.57 µM. Further, the GI50 was 2760 nM with HT29 colon, 11.7 µM in the assay with HCT-15 colon, 4.1 µM with MOLT-4 leukemia and 8.76 µM in the assay on NCI/ADR-RES ovarian. Also, the TGI in the assay with UACC-257 melanoma was more than 73.6 µM; in the assay on NCI-H522 lung, 3.38 µM; with RPMI-8226 leukemia, more than 38.2 µM; in the assay with IGROV1 ovarian, 3.97 µM; in the assay on NCI-H460 lung, more than 100 µM; in the assay on U251 CNS it was 44.7 µM. The TGI was 6.54 µM with HT29 colon, 51 µM with HCT-15 colon, more than 100 µM in the assay with MOLT-4 leukemia and more than 100 µM in the assay with NCI/ADR-RES ovarian.

`CN(CC(=O)O)Cc1oc(CO)cc(=O)c1O`: the TGI in the assay with UACC-257 melanoma, with NCI-H522 lung, in the assay on RPMI-8226 leukemia, with IGROV1 ovarian, in the assay on NCI-H460 lung and with U251 CNS was more than 100 µM each time. For the same compound, the TGI in the assay with HT29 colon, in the assay with HCT-15 colon, with MOLT-4 leukemia and in the assay on NCI/ADR-RES ovarian was more than 100 µM throughout.

Regarding `Clc1ccc(CNc2nccc(-c3cnn4ncccc34)n2)cc1`, the GI50 in the assay on UACC-257 melanoma is 6430 nM; in the assay on NCI-H522 lung it was 5850 nM; in the assay with RPMI-8226 leukemia, 5.8 µM; in the assay on IGROV1 ovarian, 6720 nM; in the assay with NCI-H460 lung, 7.92 µM; in the assay on U251 CNS, 6.73 µM. Moreover, the GI50 was 6460 nM with HT29 colon, 8.5 µM in the assay on HCT-15 colon, 8.16 µM in the assay on MOLT-4 leukemia and 6.75 µM in the assay with NCI/ADR-RES ovarian. In addition, the TGI in the assay on UACC-257 melanoma is 16.5 µM; in the assay with NCI-H522 lung it was 19.3 µM; in the assay with RPMI-8226 leukemia it was 20 µM; in the assay on IGROV1 ovarian it was more than 23.3 µM; in the assay with NCI-H460 lung, more than 25 µM; in the assay on U251 CNS it was more than 25 µM. The TGI is 21.1 µM with HT29 colon, more than 25 µM in the assay on HCT-15 colon, more than 25 µM in the assay with MOLT-4 leukemia and more than 25 µM in the assay on NCI/ADR-RES ovarian.

As for `Cc1cc(C)c(S(=O)(=O)N(CCc2cccc(Br)c2)Cc2ccc(-c3cccc(S(C)(=O)=O)c3)cc2)c(C)c1`, the GI50 was more than 100000 nM in the assay on NCI-H522 lung; more than 100 µM with RPMI-8226 leukemia; more than 100000 nM in the assay on IGROV1 ovarian; more than 100 µM with NCI-H460 lung; more than 100 µM in the assay with U251 CNS; more than 100000 nM with HT29 colon. Moreover, the GI50 in the assay with HCT-15 colon, with MOLT-4 leukemia and in the assay on NCI/ADR-RES ovarian was more than 100 µM in each case. Also, the TGI in the assay with NCI-H522 lung, with RPMI-8226 leukemia, with IGROV1 ovarian, in the assay on NCI-H460 lung, with U251 CNS and in the assay with HT29 colon was more than 100 µM throughout. Further, the TGI with HCT-15 colon, with MOLT-4 leukemia and with NCI/ADR-RES ovarian was more than 100 µM each time.

Regarding `CCc1ccc2nccc(NCCCN(C)C)c2c1[N+](=O)[O-]`, the TGI is 81.3 µM with UACC-257 melanoma; more than 100 µM in the assay on NCI-H522 lung; more than 100 µM with RPMI-8226 leukemia; more than 100 µM with IGROV1 ovarian; more than 100 µM with NCI-H460 lung; more than 100 µM with U251 CNS. Further, the TGI in the assay with HT29 colon, with MOLT-4 leukemia and in the assay with NCI/ADR-RES ovarian was more than 100 µM each time.
